# Laboratory results as given in paper PMC12322948 (The Journal of Organic Chemistry, 2025).
# Like-named read-outs stand apart in the source and are kept apart here.
# Molecular target: T1, ACE2 (Homo sapiens, UniProt Q9BYF1)
# T1 construct: purchased Abcam/BioVision ab273373
# Assay: ACE2 inhibition assay (Abcam ACE2 Inhibitor Screening Kit, fluorogenic MCA peptide substrate)
# Type: biochemical
# Settings: for pIC50 exp-MLN – pIC50 exp: difference between experimental pIC50 of MLN-4760 and of the compound
# Experimental: Having validated our radiosynthetic approach to (S,S)-[^18F]1 and with various fluorinated MLN-4760 analogues in hand, we next looked to evaluate the inhibitory activity of the analogues using a commercially available ACE2 inhibition assay kit (Table ) (Figure ). […] Consequently, the pIC50 values of the tested compounds were evaluated relative to our experimentally measured value for MLN-4760 in order to identify lead candidates for radiolabeling. […] The difference between the in vitro pIC^exp 50 for MLN-4760 and the pIC^exp 50 values of (S,S)-1–(S,S)-4 aligned with the difference in the in silico predicted pIC50 (pIC^pr 50) of MLN-4760 and pIC^pr 50 values of (S,S)-1–(S,S)-4. Specifically, these pIC50 differences for all 3,5-disubstituted benzyl analogues (S,S)-2, (S,S)-3, and (S,S)-4 were smaller than for the para-substituted benzyl analogue (S,S)-1, providing support for the pIC^pr 50 values (Table ). Consequently, compounds (S,S)-2, (S,S)-3 and (S,S)-4, with pIC50 values in the same range as MLN-4760, emerge as priority targets for future ACE2 PET radioligand development.
# The assay for the inhibition of ACE2 was conducted using a commercially available ACE2 Inhibitor Screening Kit, purchased from Abcam (ACE2 Inhibitor Screening Kit, ab273373; Abcam/BioVision), in 96-well microplates (half area, black, flat bottomed, Greiner Bio-One International) at ambient temperature (set to 23.5 °C), total volume 100 µL. The assay employs a synthetic MCA-based peptide substrate that, upon cleavage by active ACE2, releases a fluorophore measurable by a fluorescence microplate reader (Ex/Em = 320/420 nm). Compounds to be tested were serially diluted with dilution buffer from a stock solution (5 mg/mL) in dimethyl sulfoxide (DMSO) to different concentrations.
# Diluted ACE2 enzyme solution was prepared by diluting ACE2 enzyme (20 µL, provided in the kit) with dilution buffer (198 µL, provided in the kit ) and was aliquoted and stored at -20 °C.
# Diluted ACE2 enzyme solution (2 µL) was added to assay buffer (48 µL ) to make ACE2 enzyme working solution. Inhibitor solution was prepared by adding the cont rol inhibitors (5 µL, 0.5 mM) to dilution buffer (50 µL) and was aliquoted and stored at -20 °C. The ACE2 substrate was aliquoted and stored at -20 °C. ACE2 substrate solution was prepared by diluting substrate (2 µL) […]
# Five controls were prepared: enzyme control (positive control, inhibition free reaction), inhibitor control (negative control to test inhibition), background control (to remove fluorescence from the background), test compound control (to test whether the test compounds react with the substrate) and vehicle control (to test the effect of solvent DMSO on ACE2 enzyme activity).
# For enzyme control, inhibitor control and vehicle control, and test compounds, ACE2 enzyme working solution (50 µL) was added. For background control and test compound control, assay buffer (50 µL) was added. Then, assay buffer (10 µL) was added to enzyme control and background control. DMSO solution in assay buffer (10 µL) was added to vehicle control. Inhibitor solution (10 µL) was added to inhibitor control. Test compound solution (10 µL) was added to the test compound control. For the test compound, compound solution (10 µL) with the different concentrations were added. An example of preparation can be found on Table S3.1. The mixture […]
# and substrate were incubated separately at room temperature for 15 minutes before substrate (40 µL) was added to each test and mixed evenly to start the reaction. Fluorescence was monitored over 61-minutes (excitation = 320 nm, emission = 420 nm) using a Tecan microplate reader (Infinite® 200 PRO NanoQuant Microplate Reader). Fluorescence spectra were measured using the fluorescence intensity mode (excitation = 320 nm).
# Table S4.1. Preparation of control and test compounds
# Test Component 1 Component 2 Component 3
# Vehicle control 50 µL enzyme1 10 µL DMSO (0.1 mM) 40 µL substrate2
# Background control 50 µL assay buffer 10 µL assay buffer 40 µL substrate […]
# [1] = Abcam ACE2 inhibitor screening kit, read-out: pIC50 exp (experimental pIC50) (converted)
# T1 sequence (Q9BYF1 18-805): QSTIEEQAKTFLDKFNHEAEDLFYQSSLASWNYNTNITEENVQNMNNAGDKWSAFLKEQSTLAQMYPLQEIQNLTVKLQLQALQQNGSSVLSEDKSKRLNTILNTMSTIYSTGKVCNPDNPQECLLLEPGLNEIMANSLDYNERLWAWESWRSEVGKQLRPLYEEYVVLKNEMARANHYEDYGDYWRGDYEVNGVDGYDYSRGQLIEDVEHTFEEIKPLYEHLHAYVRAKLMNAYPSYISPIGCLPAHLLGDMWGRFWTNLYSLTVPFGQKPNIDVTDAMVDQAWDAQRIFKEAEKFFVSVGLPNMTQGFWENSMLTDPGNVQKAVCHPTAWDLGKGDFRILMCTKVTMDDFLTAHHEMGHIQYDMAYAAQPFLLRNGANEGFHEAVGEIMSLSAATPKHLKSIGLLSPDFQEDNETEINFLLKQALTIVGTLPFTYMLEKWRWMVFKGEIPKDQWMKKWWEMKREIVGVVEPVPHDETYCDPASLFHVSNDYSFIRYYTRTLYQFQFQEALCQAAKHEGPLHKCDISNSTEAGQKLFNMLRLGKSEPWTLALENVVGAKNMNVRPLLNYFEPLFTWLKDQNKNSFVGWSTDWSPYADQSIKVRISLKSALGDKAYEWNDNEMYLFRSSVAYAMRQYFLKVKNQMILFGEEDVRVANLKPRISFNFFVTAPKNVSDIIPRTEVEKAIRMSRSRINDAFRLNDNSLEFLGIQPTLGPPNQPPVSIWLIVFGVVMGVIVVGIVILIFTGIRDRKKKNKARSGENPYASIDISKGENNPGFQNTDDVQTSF
SMILES,IC50 [1] [µM],pIC50 exp-MLN – pIC50 exp,IC50 [µM]
"CC(C)C[C@@H](N[C@@H](Cc1cncn1Cc1ccc(F)cc1)C(=O)O)C(=O)O [(S,R)-1]",40.7,3.15,
"CC(C)C[C@H](N[C@@H](Cc1cncn1Cc1ccc(F)cc1)C(=O)O)C(=O)O [(S,S)-1]",0.204,0.85,
"Cc1cc(F)cc(Cn2cncc2C[C@H](N[C@@H](CC(C)C)C(=O)O)C(=O)O)c1 [(S,S)-2]",,0.36,0.0661
"CC(C)C[C@H](N[C@@H](Cc1cncn1Cc1cc(F)cc(Cl)c1)C(=O)O)C(=O)O [(S,S)-3]",,–0.07,0.0245
"COc1cc(Cn2cncc2C[C@H](N[C@@H](CC(C)C)C(=O)O)C(=O)O)cc(OCCF)c1 [(S,S)-4]",,0.27,0.0537
"CC(C)C[C@H](N[C@@H](Cc1cncn1Cc1cc(Cl)cc(Cl)c1)C(=O)O)C(=O)O [MLN-4760, (S,S)-2-(1-carboxy-2-(3-(3,5-dichlorobenzyl)-3H-imidazol-4-yl)-ethylamino)-4-methylpentanoic acid, reference compound]",,0.00,0.0288
